Legend:
[1] = system: S. aureus DSM 20231; assay: Bliss interaction score (quartile over a dose matrix) (fitness difference); higher = more antagonism (negative = synergy)
Outline: (§1)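 Fitness was derived from optical density at entry into stationary phase, divided by the robust mean of the no-drug wells on the same plate. That reading was taken as OD595, and the ratio was capped at 1. Single-drug fitness was inferred from the combination data. The Bliss score, observed fitness minus the expected product of single-drug fitness, was summarised as quartiles over technical, biological and donor/recipient replicates.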

[2] = system: S. pneumoniae D39V; assay: as above
Outline: as §1

[3] = system: B. subtilis 168; assay: as above
Outline: as §1

[4] = system: S. aureus Newman; assay: as above
Outline: as §1

[5] = system: B. subtilis 168; assay: fitness (endpoint OD595 vs no drug) (fraction); higher = more growth
Outline: (§2)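 Volumes were 30 µl per well, or 55 µl for S. pneumoniae, in 384-well plates inoculated at OD595 0.01. Media were TSB, LB Lennox or CY at 37 °C, and OD595 was read every 30 min for 14 h with first-reading background subtraction. Fitness is the ratio of optical density at stationary-phase entry to the robust mean of no-drug controls. That ratio is capped at 1.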

[6] = system: S. pneumoniae D39V; assay: as above
Outline: as §2
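Throughout, for Bliss interaction score (quartile over a dose matrix): first quartile when negative (synergy) and third quartile when positive (antagonism).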

CN(C)C(=O)C(CCN1CCC(O)(c2ccc(Cl)cc2)CC1)(c1ccccc1)c1ccccc1 [Loperamide] + CO[C@@H]1[C@@H](OC(N)=O)[C@@H](O)[C@H](Oc2ccc3c(O)c(NC(=O)c4ccc(O)c(CC=C(C)C)c4)c(=O)oc3c2C)OC1(C)C [Novobiocin]
Conditions	Bliss interaction score
[1]	-0.0535
[2]	-0.113
[3]	0.205
[4]	-0.0759

[5], first compound 25 µg/mL
Conditions	fitness
partner 0.0125 µg/mL	0.889
partner 0.025 µg/mL	0.85
partner 0.05 µg/mL	0.86

fitness, [5], one replicate
Conditions	first compound 25 µg/mL	first compound 50 µg/mL	first compound 100 µg/mL
partner 0.125 µg/mL	0.703	0.028	0.0375
partner 0.25 µg/mL	0.274	0.0063	0.0267
partner 0.5 µg/mL	0.186	0.0466	0.0548

CCCCCCCCCC(=O)N[C@@H](Cc1c[nH]c2ccccc12)C(=O)N[C@H](CC(N)=O)C(=O)N[C@@H](CC(=O)O)C(=O)N[C@@H]1C(=O)NCC(=O)N[C@@H](CCCN)C(=O)N[C@@H](CC(=O)O)C(=O)N[C@H](C)C(=O)N[C@@H](CC(=O)O)C(=O)NCC(=O)N[C@H](CO)C(=O)N[C@@H]([C@H](C)CC(=O)O)C(=O)N[C@@H](CC(=O)c2ccccc2N)C(=O)O[C@@H]1C [Daptomycin] + C[C@@H](O)[C@H]1C(=O)N2C(C(=O)O)=C(SCCNC=N)C[C@H]12 [Imipenem]
Conditions	Bliss interaction score
[1]	0.0417
[2]	0.0763
[3]	-0.0985
[4]	0.0265

fitness, [6]
Conditions	partner 0.005 µg/mL	partner 0.0065 µg/mL	partner 0.01 µg/mL	partner 0.013 µg/mL	partner 0.02 µg/mL	partner 0.026 µg/mL
first compound 1 µg/mL	0.962	0.886	0.986	0.808	0.935	0.716
first compound 2 µg/mL	0.979	0.895	0.931	0.837	0.989	0.843
first compound 4 µg/mL	0.902	0.93	0.884	0.947	0.897	0.887

C[C@H]1COc2c(N3CCN(C)CC3)c(F)cc3c(=O)c(C(=O)O)cn1c23 [Levofloxacin] + C/C(=C\C(=O)OCCCCCCCCC(=O)O)C[C@@H]1OC[C@H](C[C@@H]2O[C@H]2[C@@H](C)[C@H](C)O)[C@@H](O)[C@H]1O [Pseudomonic acid]
Conditions	Bliss interaction score
[1]	0.0199
[2]	0.0974
[3]	0.0468
[4]	0.0537

fitness, [6]
Conditions	first compound 0.1725 µg/mL	first compound 0.2 µg/mL	first compound 0.345 µg/mL	first compound 0.4 µg/mL	first compound 0.69 µg/mL	first compound 0.8 µg/mL
partner 0.03 µg/mL	0.875	0.899	0.856	0.882	0.598	0.647
partner 0.06 µg/mL	0.822	0.752	0.781	0.766	0.541	0.687
partner 0.12 µg/mL	0.57	0.573	0.524	0.599	0.376	0.519

CN(C)C(=O)C(CCN1CCC(O)(c2ccc(Cl)cc2)CC1)(c1ccccc1)c1ccccc1 [Loperamide] + CO[C@H]1/C=C/O[C@@]2(C)Oc3c(C)c(O)c4c(O)c(c(/C=N/N5CCN(C)CC5)c(O)c4c3C2=O)NC(=O)/C(C)=C\C=C\[C@H](C)[C@H](O)[C@@H](C)[C@@H](O)[C@@H](C)[C@H](OC(C)=O)[C@@H]1C [Rifampicin]
Conditions	Bliss interaction score
[1]	-0.0475
[2]	-0.0733
[3]	0.161
[4]	0.012

fitness, [6]
Conditions	first compound 17.14 µg/mL	first compound 34.28 µg/mL
partner 0.05 µg/mL	0.875	–
partner 0.2 µg/mL	0.145	0.136

fitness, [6], one replicate
Conditions	first compound 20 µg/mL	first compound 40 µg/mL	first compound 68.57 µg/mL	first compound 80 µg/mL
partner 0.025 µg/mL	0.92	0.921	–	0.701
partner 0.05 µg/mL	–	–	0.833	–
partner 0.1 µg/mL	–	–	0.544	–
partner 0.2 µg/mL	0	0	0.14	0

CO/N=C(\C(=O)N[C@@H]1C(=O)N2C(C(=O)[O-])=C(C[N+]3(C)CCCC3)CS[C@H]12)c1csc(N)n1 [Cefepime] + C[C@H]1COc2c(N3CCN(C)CC3)c(F)cc3c(=O)c(C(=O)O)cn1c23 [Levofloxacin]
Conditions	Bliss interaction score
[1]	0.0646
[2]	0.157
[3]	0.0275
[4]	0.0639

fitness, [6]
Conditions	partner 0.1725 µg/mL	partner 0.2 µg/mL	partner 0.345 µg/mL	partner 0.4 µg/mL	partner 0.69 µg/mL	partner 0.8 µg/mL
first compound 0.007 µg/mL	–	0.996	–	0.951	–	0.779
first compound 0.0078 µg/mL	0.991	–	0.937	–	0.727	–
first compound 0.014 µg/mL	–	0.993	–	0.963	–	0.768
first compound 0.0155 µg/mL	0.928	–	0.924	–	0.62	–
first compound 0.028 µg/mL	–	0.935	–	0.861	–	0.516

CC1(C)S[C@@H]2[C@H](NC(=O)[C@H](N)c3ccc(O)cc3)C(=O)N2[C@H]1C(=O)O [Amoxicillin] + CN(C)C(=O)C(CCN1CCC(O)(c2ccc(Cl)cc2)CC1)(c1ccccc1)c1ccccc1 [Loperamide]
Conditions	Bliss interaction score
[1]	-0.117
[2]	0.0558
[3]	0.0397
[4]	0.0589

fitness, [6]
Conditions	partner 17.14 µg/mL	partner 20 µg/mL	partner 34.28 µg/mL	partner 40 µg/mL	partner 80 µg/mL
first compound 0.0008 µg/mL	0.993	–	0.945	–	–
first compound 0.0015 µg/mL	0.977	≥ 1	0.935	≥ 1	≥ 1
first compound 0.003 µg/mL	0.868	0.999	0.839	0.994	0.991

fitness, [6], one replicate
Conditions	first compound 0.0008 µg/mL	first compound 0.0015 µg/mL	first compound 0.003 µg/mL	first compound 0.006 µg/mL
partner 20 µg/mL	≥ 1	–	–	0.442
partner 40 µg/mL	≥ 1	–	–	0.448
partner 68.57 µg/mL	≥ 1	0.934	0.894	–
partner 80 µg/mL	≥ 1	–	–	0.212

CO/N=C(\C(=O)N[C@@H]1C(=O)N2C(C(=O)[O-])=C(C[N+]3(C)CCCC3)CS[C@H]12)c1csc(N)n1 [Cefepime] + C[C@@H](O)[C@H]1C(=O)N2C(C(=O)O)=C(SCCNC=N)C[C@H]12 [Imipenem]
Conditions	Bliss interaction score
[1]	-0.0424
[2]	0.068
[3]	-0.106
[4]	0.155

fitness, [6]
Conditions	first compound 0.007 µg/mL	first compound 0.0078 µg/mL	first compound 0.014 µg/mL	first compound 0.0155 µg/mL	first compound 0.028 µg/mL	first compound 0.031 µg/mL
partner 0.005 µg/mL	0.987	–	0.979	–	0.92	–
partner 0.0065 µg/mL	–	1	–	0.971	–	0.39
partner 0.01 µg/mL	0.984	–	≥ 1	–	0.902	–
partner 0.013 µg/mL	–	≥ 1	–	0.98	–	0.495
partner 0.02 µg/mL	0.986	–	0.991	–	0.881	–
partner 0.026 µg/mL	–	0.995	–	0.915	–	0.325

CCCCCCCCCC(=O)N[C@@H](Cc1c[nH]c2ccccc12)C(=O)N[C@H](CC(N)=O)C(=O)N[C@@H](CC(=O)O)C(=O)N[C@@H]1C(=O)NCC(=O)N[C@@H](CCCN)C(=O)N[C@@H](CC(=O)O)C(=O)N[C@H](C)C(=O)N[C@@H](CC(=O)O)C(=O)NCC(=O)N[C@H](CO)C(=O)N[C@@H]([C@H](C)CC(=O)O)C(=O)N[C@@H](CC(=O)c2ccccc2N)C(=O)O[C@@H]1C [Daptomycin] + O=C1CN(/N=C/c2ccc([N+](=O)[O-])o2)C(=O)N1 [Nitrofurantoin]
Conditions	Bliss interaction score
[1]	0.0921
[2]	0.0606
[3]	-0.0871
[4]	0.0519

fitness, [6]
Conditions	partner 1.285 µg/mL	partner 2 µg/mL	partner 2.57 µg/mL	partner 4 µg/mL	partner 8 µg/mL
first compound 1 µg/mL	0.981	0.883	0.946	0.788	0.338
first compound 2 µg/mL	0.943	0.85	0.904	0.763	0.327
first compound 4 µg/mL	0.948	0.808	0.948	0.704	0.34

[6], partner 5.14 µg/mL, one replicate
Conditions	fitness
first compound 1 µg/mL	0.839
first compound 2 µg/mL	0.82
first compound 4 µg/mL	0.883

CC1(C)S[C@@H]2[C@H](NC(=O)[C@H](N)c3ccc(O)cc3)C(=O)N2[C@H]1C(=O)O [Amoxicillin] + CO[C@H]1/C=C/O[C@@]2(C)Oc3c(C)c(O)c4c(O)c(c(/C=N/N5CCN(C)CC5)c(O)c4c3C2=O)NC(=O)/C(C)=C\C=C\[C@H](C)[C@H](O)[C@@H](C)[C@@H](O)[C@@H](C)[C@H](OC(C)=O)[C@@H]1C [Rifampicin]
Conditions	Bliss interaction score
[1]	0.133
[2]	0.0783
[3]	0.0837
[4]	0.073

[6], partner 0.025 µg/mL
Conditions	fitness
first compound 0.0008 µg/mL	0.925
first compound 0.0015 µg/mL	0.917
first compound 0.003 µg/mL	0.905

[6], one replicate
Conditions	fitness
first compound 0.0008 µg/mL, partner 0.2 µg/mL	0
first compound 0.0015 µg/mL, partner 0.2 µg/mL	0
first compound 0.003 µg/mL, partner 0.2 µg/mL	0
first compound 0.006 µg/mL, partner 0.025 µg/mL	0.468
first compound 0.006 µg/mL, partner 0.05 µg/mL	0.546
first compound 0.006 µg/mL, partner 0.1 µg/mL	0.261

CO/N=C(\C(=O)N[C@@H]1C(=O)N2C(C(=O)[O-])=C(C[N+]3(C)CCCC3)CS[C@H]12)c1csc(N)n1 [Cefepime] + CO[C@H]1/C=C/O[C@@]2(C)Oc3c(C)c(O)c4c(O)c(c(/C=N/N5CCN(C)CC5)c(O)c4c3C2=O)NC(=O)/C(C)=C\C=C\[C@H](C)[C@H](O)[C@@H](C)[C@@H](O)[C@@H](C)[C@H](OC(C)=O)[C@@H]1C [Rifampicin]
Conditions	Bliss interaction score
[1]	0.136
[2]	0.0513
[3]	0.118
[4]	0.035

fitness, [6]
Conditions	first compound 0.007 µg/mL	first compound 0.014 µg/mL	first compound 0.0155 µg/mL	first compound 0.028 µg/mL	first compound 0.031 µg/mL
partner 0.025 µg/mL	≥ 1	0.992	–	0.93	–
partner 0.05 µg/mL	≥ 1	0.995	–	0.936	–
partner 0.1 µg/mL	0.477	0.47	0.325	0.222	0.208

fitness, [6], one replicate
Conditions	first compound 0.0078 µg/mL	first compound 0.0155 µg/mL	first compound 0.031 µg/mL
partner 0.025 µg/mL	0.884	0.779	0.31
partner 0.2 µg/mL	0	0	0

CO/N=C(\C(=O)N[C@@H]1C(=O)N2C(C(=O)[O-])=C(C[N+]3(C)CCCC3)CS[C@H]12)c1csc(N)n1 [Cefepime] + Clc1ccc(COC(Cn2ccnc2)c2ccc(Cl)cc2Cl)c(Cl)c1 [Miconazole]
Conditions	Bliss interaction score
[1]	-0.109
[2]	0.0753
[3]	0.0393
[4]	-0.0643

[6]
Conditions	fitness
first compound 0.007 µg/mL, partner 1.25 µg/mL	0.985
first compound 0.007 µg/mL, partner 2.5 µg/mL	0.982
first compound 0.007 µg/mL, partner 5 µg/mL	0.965
first compound 0.0078 µg/mL, partner 1.073 µg/mL	≥ 1
first compound 0.0078 µg/mL, partner 2.145 µg/mL	≥ 1
first compound 0.0078 µg/mL, partner 4.29 µg/mL	0.948
first compound 0.014 µg/mL, partner 1.25 µg/mL	0.934
first compound 0.014 µg/mL, partner 2.5 µg/mL	0.969
first compound 0.014 µg/mL, partner 5 µg/mL	0.943
first compound 0.0155 µg/mL, partner 1.073 µg/mL	0.995
first compound 0.0155 µg/mL, partner 2.145 µg/mL	0.851
first compound 0.0155 µg/mL, partner 4.29 µg/mL	0.848
first compound 0.028 µg/mL, partner 1.25 µg/mL	0.87
first compound 0.028 µg/mL, partner 2.5 µg/mL	0.872
first compound 0.028 µg/mL, partner 5 µg/mL	0.861
first compound 0.031 µg/mL, partner 4.29 µg/mL	0.491

Reference: the supplement of paper PMC10627819
